According to EPA's aquatic toxicity sets:

system: Tetrahymena pyriformis; assay: 48 h IGC50 (-log10 mol/L); higher = more toxic

In order of rising “48 h IGC50 (-log10 mol/L)” value:
1. CCS(=O)(=O)CC  1.16
2. CNCCO  1.18
3. c1cnccn1  1.18
4. c1cncnc1  1.25
5. CCN(CC)C(C)=O  1.46
6. COC(=O)CC(=O)OC  1.71
7. CCOC(=O)CC#N  1.77
8. C=CC(C)O (stereo unspecified)  1.95
9. CC(C)CCO  1.96
10. CCC#CCCO  1.98
11. CC(=O)c1ccn(C)c1  2
12. CC(=O)c1ccc[nH]1  2.09
13. C#CC(C)(C)N  2.09
14. CCOC(=O)C(C)CC (stereo unspecified)  2.11
15. CC(Cl)C#N (stereo unspecified)  2.14
16. OCCBr  2.15
17. Clc1ccccn1  2.16
18. Cc1cccc(C)n1  2.19
19. CCCOC(=O)CC  2.19
20. N#Cc1cccnc1  2.26
21. O=C(O)CCCCBr  2.31
22. CCC(C)OC(C)=O (stereo unspecified)  2.32
23. OCCc1ccccc1  2.41
24. CCC#CCO  2.43
25. Cc1c(N)cccc1O  2.45
26. O=C(O)CCCCCCC(=O)O  2.49
27. Cc1ccncc1C  2.5
28. CCCCC(O)CC (stereo unspecified)  2.51
29. N#Cc1cccc(N)c1  2.53
30. CCCCCC(C)O (stereo unspecified)  2.53
31. N#Cc1c(O)ccc(O)c1C#N  2.56
32. Cc1cccc(C)c1N  2.57
33. CCCCCCO  2.62
34. N#CCc1ccccc1  2.64
35. CC/C=C/C(=O)O  2.72
36. OCCCc1ccccc1  2.79
37. COc1cc(CCO)ccc1O  2.82
38. N#CCCc1ccccc1  2.84
39. CCC(O)Cc1ccccc1 (stereo unspecified)  2.84
40. O=C1CCO1  2.88
41. CCC(CC)COC(C)=O  2.88
42. OC12CC3CC(CC(C3)C1)C2  2.92
43. C=CCC(C(=O)OCC)C(=O)OCC  2.94
44. Brc1ccsc1  2.96
45. O=C(O)CCBr  2.96
46. Cc1ccc(CCN)cc1  2.96
47. C/C(=N\O)C(=O)c1ccccc1  2.96
48. CCC(=O)C(=O)CC  2.99
49. OCCCCCCBr  3.01
50. CCC(C)(O)c1ccccc1 (stereo unspecified)  3.06
51. CCCOS(=O)OCCC  3.09
52. C=CS(=O)c1ccccc1 (stereo unspecified)  3.16
53. C=CCc1ccccc1  3.19
54. O=C(O)c1ccc(Cl)c(Cl)c1  3.31
55. COc1cccc(C=O)c1O  3.38
56. CC#CC(=O)OC  3.4
57. Cc1ccc(Br)cc1  3.47
58. CC(=O)OC/C=C/c1ccccc1  3.59
59. CCCCOc1ccc(O)cc1  3.7
60. CCCC#CC(=O)OCC  3.7
61. CCCC/C=C/C(C)=O  3.74
62. Oc1c(Cl)cc(F)cc1Cl  3.8
63. C=CCI  3.8
64. O=C(c1ccccc1)c1ccccc1  3.87
65. Cc1cc(C)c(O)c(N)c1  3.89
66. COC(=O)c1ccc(C(C)(C)C)cc1  3.92
67. N#CC(Cl)Cl  3.97
68. CCC(Br)C(=O)OC (stereo unspecified)  4.02
69. Nc1c(Cl)cc([N+](=O)[O-])cc1[N+](=O)[O-]  4.12
70. Cc1cc(Br)cc(C)c1O  4.16
71. CCCCCOc1ccc(C=O)cc1  4.18
72. O=Cc1ccc(Cl)c([N+](=O)[O-])c1  4.19
73. CCCCCC#CC(=O)OCC  4.24
74. Clc1cccc(Br)c1Cl  4.3
75. c1ccc2nc3ccccc3nc2c1  4.4
76. C=CC(=O)CC  4.52
77. Nc1c(Br)cc(Br)cc1[N+](=O)[O-]  4.62
78. COc1ccc(Cl)c(Cl)c1Cl  4.64
79. C#CC(=O)OC  4.77
80. Oc1c(Cl)cc(Br)cc1Cl  4.78
81. NC(=O)CI  4.85
82. O=[N+]([O-])c1ccc(Nc2ccccc2)cc1  4.89
83. O=[N+]([O-])c1ccc(Br)c([N+](=O)[O-])c1  5.31
84. N#Cc1c(F)c(F)c(C#N)c(F)c1F  5.55
85. O=[N+]([O-])c1cc(Cl)c(Cl)c([N+](=O)[O-])c1Cl  5.6
86. S=C=NC(c1ccccc1)c1ccccc1  6.05
